From patent US10920265B2, “Compounds and methods for detection of enzymes that remove methyl succinyl groups from epsilon-amino lysine moieties” (Enzo Life Sciences, Inc., priority 2011, dated 2021)
*: point of attachment. AMC = Cc1cc(=O)oc2cc(N*)ccc12

Molecular target: T1, SIRT5 (Homo sapiens, UniProt Q9NXA8)
T1 sequence (Q9NXA8 37-310): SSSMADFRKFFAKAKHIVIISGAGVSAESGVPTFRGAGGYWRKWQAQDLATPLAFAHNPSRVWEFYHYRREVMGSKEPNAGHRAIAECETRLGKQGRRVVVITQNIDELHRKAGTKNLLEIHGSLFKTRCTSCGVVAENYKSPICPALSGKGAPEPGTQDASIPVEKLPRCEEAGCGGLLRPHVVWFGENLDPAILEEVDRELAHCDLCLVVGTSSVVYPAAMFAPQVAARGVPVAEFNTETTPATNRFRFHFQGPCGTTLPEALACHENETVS
Test: SIRT5 desuccinylation/deacetylation of fluorogenic lysyl substrates, trypsin developer
Type: biochemical
Set-up: purchased Enzo Life Sciences BML-SE555
Settings: for Dependence of SIRT5 initial rate on substrate concentration: 20 min. at 37° C.
Method: FIG. 3 is graphs showing that SIRT5 catalyzes NAD^+-dependent desuccinylation of Ac-Lys(ε-succinyl)-AMC far more efficiently than NAD^+-dependent deacetylation of Ac-Arg-His-Lys-Lys(ε-acetyl)-AMC. Fifty μl reactions in Assay Buffer (50 mM Tris/HCl, pH 8.0, 137 mM NaCl, 2.7 mM KCl, 1 mM MgCl2, 1 mg/ml BSA) included 50 μM of either Ac-Lys(ε-succinyl)-AMC or Ac-Arg-His-Lys-Lys(ε-acetyl)-AMC, and, where indicated, 500 μM NAD^+ and 5 μg recombinant human SIRT5 (Enzo Life Sciences Cat. # BML-SE555). […] AMC fluorescence was read in a Cytofluor II plate-reading fluorimeter (Perseptive Biosystems) at wavelengths 360 nm (excitation)/460 nm (emission), Gain 54. Data represent the mean of two (No Enzyme) or three (+SIRT5) determinations and error bars the standard deviations. Panels A and B present the same data, but with the +SIRT5/+NAD^+/Ac-Lys(ε-succinyl)-AMC bar omitted from B to show the detail on the remaining bars. Statistically significant differences (Student's t-test) are indicated by asterisks as follows: *: p<0.02 vs. corresponding No Enzyme control; **: p<0.001 vs. corresponding −NAD^+ control; ***: p<3×10^−6 vs. both No Enzyme and −NAD^+ controls.
FIG. 4 is a graph showing that Ac-Lys(Succ.)-AMC enables SIRT5 assay at low enzyme concentrations. Fifty μl reactions in Assay Buffer (50 mM Tris/HCl, pH 8.0, 137 mM NaCl, 2.7 mM KCl, 1 mM MgCl2, 1 mg/ml BSA) included 2 or 10 μM Ac-Lys(ε-succinyl)-AMC, 500 μM NAD^+ and, where indicated, 5 ng recombinant human SIRT5 (Enzo Life Sciences Cat. # BML-SE555). […] AMC fluorescence was read in a Synergy 2 plate-reading fluorimeter (BioTek) at wavelengths 360 nm (excitation)/460 nm (emission), Gain 40. Data represent the mean of two (No Enzyme) or three (5 ng SIRT5) determinations and error bars the standard deviations. Statistically significant differences (Student's t-test) are indicated by asterisks as follows: *: p=0.002; **: p=0.009, each with respect to the corresponding “No SIRT5” samples.
FIG. 5 is graphs showing dependence of SIRT5 initial rate kinetics on the concentrations of Ac-Lys(Succ.)-AMC and Ac-Lys(Ac.)-AMC. Fifty μl desuccinylation or deacetylation reactions were performed as described earlier (FIG. 4), with the indicated concentrations of Ac-Lys(Succ.)-AMC or Ac-Lys(Ac.)-AMC and 1 mM NAD^+, for 20 min. at 37° C. Reactions with Ac-Lys(Succ.)-AMC contained 10 ng SIRT5 and those with Ac-Lys(Ac.)-AMC contained 5 SIRT5. Reactions were stopped and AMC cleaved from deacetylated or desuccinylated substrate by trypsin treatment as described earlier (FIG. 4). AMC fluorescence was read in a Synergy 2 plate-reading fluorimeter (BioTek) at wavelengths 360 nm (excitation)/460 nm (emission), Gain 40. Data represent the mean of the differences of three determinations with enzyme (10 ng or 5 SIRT5) from the mean of two no enzyme samples for each substrate concentration. Error bars are the standard deviations from those means. Fluorescence differences were converted to specific activities (pmol/min/μg) by measuring the fluorescence increase due to the addition a standard solution of AMC (5 μl of a […]).
FIG. 6 is a graph showing the dependence of SIRT5 initial rate kinetics of Ac-Lys(Succ.)-AMC desuccinylation on the concentration of NAD^+. Reaction conditions were as described for FIG. 5 but with a constant Ac-Lys(Succ.)-AMC concentration of 0.5 mM and the indicated concentrations of NAD^+. Data analysis and determination of kinetic parameters were as described (FIG. 5).
FIG. 12 is graphs showing that SIRT5 catalyzes NAD^+-dependent desuccinylation of (Ac-Lys(Succ.))2-R110 far more efficiently than NAD^+-dependent deacetylation of (Ac-Lys(Ac.))2-R110. Fifty μl reactions in Assay Buffer (50 mM Tris/HCl, pH 8.0, 137 mM NaCl, 2.7 mM KCl, 1 mM MgCl2, 1 mg/ml BSA) included 50 μM of either (Ac-Lys(Succ.))2-R110 or (Ac-Lys(Ac.))2-R110, and, where indicated, 500 μM NAD^+ and 5 μg recombinant human SIRT5 (Enzo Life Sciences Cat. # BML-SE555). […]

[1] = SIRT5, 50 μM substrate, 500 μM NAD^+

Compound	Fraction of substrate desuccinylated (5 μg SIRT5 (3 μM in 50 μl), 50 μM substrate, 60 min.)	SIRT5/NAD^+ dependence of desuccinylation (5 μg SIRT5, 50 μM substrate, 500 μM NAD^+, 60 min.)	Desuccinylation relative to deacetylation of Ac-Arg-His-Lys-Lys(ε-acetyl)-AMC (5 μg SIRT5 per 50 μl, 50 μM substrate, 500 μM NAD^+, 60 min.)	Dependence of SIRT5 initial rate on substrate concentration (1 mM NAD^+)	Activity [1]	kcat (varied substrate: Lysyl, 1 mM NAD^+)	kcat (varied substrate: NAD^+, constant 0.5 mM Ac-Lys(Succ.)-AMC)	Activity (pmol/min/μg) [1]
CC(=O)N[C@@H](CCCCNC(=O)CCC(=O)O)C(=O)Nc1ccc2c(C)cc(=O)oc2c1 [Compound 1, N—(N^α-acetyl-L-Lysine(N^ε-succinyl))-AMC]	~50%	entirely dependent on the presence of SIRT5 and NAD^+	at least 250 fold	displays saturation kinetics	115 pmol/min/µg	0.26 s⁻¹	0.29 s⁻¹	
Ac-Arg-His-Lys-Lys(ε-acetyl)-AMC (Ac-RHKK(Ac)-{AMC}; SMILES CC(=O)NCCCC[C@H](NC(=O)[C@H](CCCCN)NC(=O)[C@H](Cc1c[nH]cn1)NC(=O)[C@H](CCCNC(=N)N)NC(C)=O)C(=O)Nc1ccc2c(C)cc(=O)oc2c1) [Ac-RHKK(Ac)-AMC, p53 peptide fluorogenic deacetylase substrate, Cat. # BML-KI177, reference compound]								Ac-RHKK(Ac)-AMC/0.364 pmol/min/μg
CC(=O)NCCCCC(NC(C)=O)C(=O)Nc1ccc2c(C)cc(=O)oc2c1 (stereo not shown) [Ac-Lys(Ac.)-AMC, Ac-Lys(ε-acetyl)-AMC, reference compound]				remains linear over the concentration range of the assay	0.0174 pmol/min/µg			
